Results from US20230280334A1, “CDC20 VARIANTS RESISTANT TO ANTI-MITOTIC DRUGS AND RELATED METHODS AND COMPOSITIONS” (Whitehead Institute for Biomedical Research, priority 2021, published 2023).

Experiments:
[1] = test system: HeLa cells; test: Time-lapse mitotic timing / mitotic arrest duration in HeLa cells; assay type: cell-based, human; conditions: for median arrest time / median mitotic arrest duration: HeLa; for median arrest time: 10 µM STLC (FIG. 6D); for median mitotic arrest duration: 10 µM STLC (FIG. 5E); for Mitotic time (min), HeLa: in the presence of 10 µM STLC with the indicated drug or RNAi treatment, mean ± standard deviation, two replicates
Protocol: (§1) Mitotic arrest duration in the presence of 10 µM STLC for control HeLa compared to the ΔM1 and M1-stop mutant cell lines with the indicated drug or RNAi treatment (see FIGS. 3F, 9D). Indicated is the mean mitotic duration ± standard deviation across two experimental replicates. Statistics from Mann-Whitney Test (**** = p < 0.0001, NS = not significant).
(§2) HeLa, hTERT-RPE1, U2OS, and A549 cell lines were cultured in Dulbecco’s modified Eagle medium (DMEM) supplemented with 10% fetal bovine serum (FBS), 100 U/mL penicillin and streptomycin, and 2 mM L-glutamine at 37° C. with 5% CO2. Doxycycline-inducible cell lines were cultured in medium containing FBS certified tetracycline free. Cas9 expression in inducible CRISPR/Cas9 cell lines was induced with 1 µg/ml doxycycline hyclate (##) at 24 hr interval for 2 days. Other drugs used on human cells were Nocodazole (##, 330 nM), S-trityl-L-cysteine (STLC, ##, 10 µM), Taxol (##, 1 µM), GSK923295 (CENP-E inhibitor, ##, 100 nM), proTAME (APC/Ci, ##, 12 µM), AZ-3146 (Mps1i, ##, 4 µM) unless concentration indicated otherwise in figure legend. Cells were enriched in mitosis with treatment with 330 nM nocodazole for 16-17 hrs. Cell lines were tested monthly for mycoplasma contamination.
(§3) Cells were later moved to CO2-independent media (##) before imaging at 37° C. Phase contrast images were acquired on a Nikon eclipse microscope equipped with a charge-coupled device (CCD) camera (Clara, Andor) or a CMOS camera (##) using a Plan Fluor 20X/0.5 NA objective at either 5 min or 10 min intervals. Time-lapse movies were analyzed using Fiji (ImageJ, NIH), ilastik (##) and CellProfiler (##). Image brightness and contrast was adjusted in Fiji, pixel-based classification was performed on individual images using ilastik and the resulting probability map images were processed by CellProfiler to identify and track mitotic cells. Each mitotic cell was then confirmed manually and the mitotic duration was determined as the time from cell rounding at mitotic entry to cell flattening after mitotic exit.

[2] = test system: A549 cells; test: Time-lapse mitotic arrest duration in A549 cells; assay type: cell-based, human; conditions: for median arrest time: 10 µM STLC (FIG. 6D)
Protocol: (§4) FIGS. 6A-6D show downstream in-frame Cdc20 translation initiation influences the mitotic slippage behavior of cancer cell lines. (FIG. 6A) Mitotic arrest duration of individual HeLa, U2OS, or A549 cells treated with 10 µM STLC alone or with a combination of STLC and siRNA treatment (either control siRNAs or Cdc20 siRNAs). Cells entering mitosis in the first 600 min (HeLa) or 700 min (U2OS/A549) of time lapse experiments were included in analyses. Open red circles indicate cells that exit mitosis. Closed black circles indicate cells that remained arrested in mitosis till the end of the time lapse. Blue circles indicate cells that die in mitosis. Bars correspond to median. Indicated are the median mitotic duration times across two experimental replicates. (FIG. 6B) Western blot of mitotically-enriched U2OS cells expressing endogenous Cdc20 protein or upon Cdc20 replacement with either wild-type CDC20 cDNA or a CDC20 M43L M88L mutant construct. Cells were enriched in mitosis with 10 µM STLC for 18 hrs. Cdc20 protein was detected using antibodies recognizing the human Cdc20 C-terminus (aa 450-499). β-actin was used as loading control. (FIG. 6C) Western blot similar to (B) for A549 cells except that ectopic constructs were induced with 50 ng/ml doxycycline. (FIG. 6D) Top, schematic illustrating the Cdc20 replacement strategy with siRNA-resistant 5′ UTR-CDC20 cDNA constructs from a doxycycline-inducible promoter combined with depletion of endogenous Cdc20 protein by siRNA treatment. Cells were treated with 10 ng/ml (HeLa/U2OS) or 50 ng/ml (A549) doxycycline. […]
(§5) Cells were later moved to CO2-independent media (##) before imaging at 37° C. […] Time-lapse movies were analyzed using Fiji (ImageJ, NIH), ilastik (##) and CellProfiler (##). […] Each mitotic cell was then confirmed manually and the mitotic duration was determined as the time from cell rounding at mitotic entry to cell flattening after mitotic exit.

[3] = test system: U2OS cells; test: Time-lapse mitotic arrest duration in U2OS cells; assay type: cell-based, human; conditions: for median arrest time: U2OS, 10 µM STLC (FIG. 6D)
Protocol: as §4, §5

[4] = test system: M1-stop mutant cell line (HeLa lacking full-length Cdc20); test: Time-lapse mitotic arrest duration in M1-stop mutant cell line; assay type: cell-based, human; conditions: for mitotic arrest / mitotic exit behaviour in the presence of STLC: M1-stop cells, 10 µM STLC alone or with the named agent; for Mitotic time (min), M1-stop: in the presence of 10 µM STLC with the indicated drug or RNAi treatment, mean ± standard deviation, two replicates
Protocol: as §1, §2
(§6) Stable clonal cell lines lacking the canonical full-length Cdc20 protein were obtained by transfecting HeLa cells with pX330-based plasmids [Cong 2013] expressing spCas9 and either the sgM1 (for ΔM1 mutant) or the sgExon1 guide RNA (for M1-stop mutant). pX330-based plasmids were transfected using Xtremegene-9 (##) together with a mCherry-expressing plasmid and mCherry-positive cells were fluorescence activated cell-sorted into 96 well plates with one cell per well. Clones were screened for successful gene editing and the CDC20 allele sequence information was determined by next-generation sequencing (Genewiz Amplicon-EZ).
as §3

[5] = test system: ΔM1 mutant cell line (HeLa lacking the canonical M1 ATG start codon of CDC20); test: Time-lapse mitotic arrest duration in ΔM1 mutant cell line; assay type: cell-based, human; conditions: for Mitotic time (min), ΔM1: in the presence of 10 µM STLC with the indicated drug or RNAi treatment, mean ± standard deviation, two replicates; for mitotic arrest / mitotic exit behaviour in the presence of STLC: ΔM1 cells, 10 µM STLC alone or with the named agent
Protocol: as §1, §2, §6, §3

[6] = test system: HEC-6 cells; test: Mitotic arrest duration in HEC-6 cells; assay type: cell-based; conditions: 10 µM STLC (FIG. 14C)
Text: (FIG. 14B) HEC-6 cells express reduced levels of full-length Cdc20 protein and thus higher relative levels of the alternative Cdc20 isoforms, compared to control HeLa cells.

[7] = Cdc20 replacement with Cdc20 M43L M88L
[8] = Cdc20 replacement with wild-type CDC20 construct

N[C@@H](CSC(c1ccccc1)(c1ccccc1)c1ccccc1)C(=O)O [STLC, S-trityl-L-cysteine]
median arrest time [1, 7]: 2110 min
median arrest time [1, 8]: 1755 min
median mitotic arrest duration ([1]; endogenous Cdc20 replaced with altATGmutx2 mutant construct): 1370 min
median mitotic arrest duration ([1]; endogenous Cdc20 replaced with wild-type siRNA-resistant CDC20 construct): 1810 min
median mitotic arrest time ([1]; STLC-treated HeLa, 10 µM STLC alone (FIG. 6A)): 1645 min
time arrested in mitosis after mitotic entry ([1]; control HeLa, 10 µM STLC, time-lapse (FIG. 3A)): > 10 h
Mitotic time (min), HeLa ([1]; listed as STLC/DMSO): 780±203 (n=103) min
Mitotic time (min), HeLa ([1]; listed as STLC/siCtrl): 805±168 (n=122) min
median arrest time ([2]; A549, Cdc20 replacement with Cdc20 M43L M88L): 1140 min
median arrest time ([2]; A549, Cdc20 replacement with wild-type CDC20 construct): 920 min
median mitotic arrest time ([2]; STLC-treated A549, 10 µM STLC alone (FIG. 6A)): 780 min
median mitotic arrest time ([3]; STLC-treated U2OS, 10 µM STLC alone (FIG. 6A)): 805 min
median arrest time [3, 7]: 1100 min
median arrest time [3, 8]: 690 min
mitotic arrest / mitotic exit behaviour in the presence of STLC [4]: exit mitosis within a few hours
Mitotic time (min), M1-stop ([4]; listed as STLC/DMSO): 67±12 (n=85) min
Mitotic time (min), M1-stop ([4]; listed as STLC/siCtrl): 70±18 (n=90) min
Mitotic time (min), ΔM1 ([5]; listed as STLC/DMSO): 60±24 (n=97) min
Mitotic time (min), ΔM1 ([5]; listed as STLC/siCtrl): 65±37 (n=88) min
mitotic arrest / mitotic exit behaviour in the presence of STLC [5]: exit mitosis within a few hours
mitotic arrest duration compared to control HeLa cells [6]: reduced mitotic arrest duration compared to control HeLa cells

AZ3146
mitotic arrest / mitotic exit behaviour in the presence of STLC [4]: further reduce the arrest
mitotic arrest / mitotic exit behaviour in the presence of STLC [5]: not exacerbated further

COC(=O)[C@H](CCCN=C(NC(=O)OCOC(=O)Cc1ccccc1)NC(=O)OCOC(=O)Cc1ccccc1)NS(=O)(=O)c1ccc(C)cc1 [proTAME]
mitotic arrest / mitotic exit behaviour in the presence of STLC [4]: suppressed the premature mitotic exit
mitotic arrest / mitotic exit behaviour in the presence of STLC [5]: suppressed the premature mitotic exit
